From ChEMBL document CHEMBL5143615, “Novel 2-aryl-4-aryloxyquinoline-based fungistatics for Mucor circinelloides. Biological evaluation of activity, QSAR and docking study” (Bioorg Med Chem Lett, 2022)
In brackets after ≈: the same amount, converted by molar mass. Activity calls are given as the source filed them. The rule behind the calls is not given here.

Experiments:
Mucor circinelloides [1] = assay: Antifungal activity against Mucor circinelloides R7B wild type strain assessed as reduction in spore germination at 25 ug/ml relative to control; type: functional; design: scale not given: the % may be the effect or the level left; settings: dose 25 µg/ml
Mucor circinelloides [2] = assay: Antifungal activity against Mucor circinelloides M5 strain assessed as reduction in spore germination at 25 ug/ml relative to control; type: functional; design: scale not given: the % may be the effect or the level left; settings: dose 25 µg/ml
Mucor circinelloides [3] = assay: Antifungal activity against Mucor circinelloides R7B wild type strain assessed as reduction in spore germination at 50 ug/ml relative to control; type: functional; design: scale not given: the % may be the effect or the level left; settings: dose 50 µg/ml
Mucor circinelloides [4] = assay: Antifungal activity against Mucor circinelloides M5 strain assessed as reduction in spore germination at 50 ug/ml relative to control; type: functional; design: scale not given: the % may be the effect or the level left; settings: dose 50 µg/ml
Mucor circinelloides [5] = assay: Antifungal activity against Mucor circinelloides R7B wild type strain assessed as reduction in spore germination at 150 ug/ml relative to control; type: functional; design: scale not given: the % may be the effect or the level left; settings: dose 150 µg/ml
Mucor circinelloides [6] = assay: Antifungal activity against Mucor circinelloides M5 strain assessed as reduction in spore germination at 150 ug/ml relative to control; type: functional; design: scale not given: the % may be the effect or the level left; settings: dose 150 µg/ml
Microsporum canis [7] = assay: Antifungal activity against Microsporum canis clinical isolate 1 assessed as reduction in fungal growth by broth dilution method; type: functional
Microsporum canis [8] = assay: Antifungal activity against Microsporum canis clinical isolate 2 assessed as reduction in fungal growth by broth dilution method; type: functional
Microsporum canis [9] = assay: Antifungal activity against Microsporum canis clinical isolate 3 assessed as reduction in fungal growth by broth dilution method; type: functional
Nannizzia gypsea [10] = assay: Antifungal activity against Microsporum gypseum clinical isolate 1 assessed as reduction in fungal growth by broth dilution method; type: functional
Nannizzia gypsea [11] = assay: Antifungal activity against Microsporum gypseum clinical isolate 2 assessed as reduction in fungal growth by broth dilution method; type: functional
Mucor circinelloides [12] = assay: Antifungal activity against Mucor circinelloides M5 strain assessed as reduction in fungal growth by broth dilution method; type: functional
[13] = system: Trichophyton mentagrophytes; assay: Antifungal activity against Trichophyton mentagrophytes clinical isolate 1 assessed as reduction in fungal growth by broth dilution method; type: functional
[14] = system: Trichophyton mentagrophytes; assay: Antifungal activity against Trichophyton mentagrophytes clinical isolate 2 assessed as reduction in fungal growth by broth dilution method; type: functional
[15] = system: Trichophyton mentagrophytes; assay: Antifungal activity against Trichophyton mentagrophytes clinical isolate 3 assessed as reduction in fungal growth by broth dilution method; type: functional
Trichophyton rubrum [16] = assay: Antifungal activity against Trichophyton rubrum clinical isolate 1 assessed as reduction in fungal growth by broth dilution method; type: functional
Trichophyton rubrum [17] = assay: Antifungal activity against Trichophyton rubrum clinical isolate 2 assessed as reduction in fungal growth by broth dilution method; type: functional
Epidermophyton floccosum = assay: Antifungal activity against Epidermophyton floccosum clinical isolate 1 assessed as reduction in fungal growth by broth dilution method; type: functional
Aspergillus nidulans [18] = assay: Antifungal activity against Aspergillus nidulans clinical isolate 1 assessed as reduction in fungal growth by broth dilution method; type: functional
Aspergillus nidulans [19] = assay: Antifungal activity against Aspergillus nidulans clinical isolate 2 assessed as reduction in fungal growth by broth dilution method; type: functional
Aspergillus niger = assay: Antifungal activity against Aspergillus niger clinical isolate 1 assessed as reduction in fungal growth by broth dilution method; type: functional
Mucor circinelloides [20] = assay: Antifungal activity against Mucor circinelloides R7B wild type strain assessed as reduction in fungal growth by broth dilution method; type: functional
[21] = Cytotoxicity against mouse NIH/3T3 cells assessed as reduction in cell viability at 25 ug/ml incubated for 48 hrs by MTT assay (reference value: 93.8 +/- 4.9 %); type: toxicity, cell-based, NIH3T3; settings: at 25 µg/mL, read-out: Activity
[22] = Cytotoxicity against mouse NIH/3T3 cells assessed as reduction in cell viability at 50 ug/ml incubated for 48 hrs by MTT assay (reference value: 93.8 +/- 4.9 %); type: toxicity, cell-based, NIH3T3; settings: at 50 µg/mL, read-out: Activity
[23] = Cytotoxicity against mouse NIH/3T3 cells assessed as reduction in cell viability at 100 ug/ml incubated for 48 hrs by MTT assay (reference value: 93.8 +/- 4.9 %); type: toxicity, cell-based, NIH3T3; settings: at 100 µg/mL, read-out: Activity
[24] = Cytotoxicity against mouse NIH/3T3 cells assessed as reduction in cell viability at 150 ug/ml incubated for 48 hrs by MTT assay (reference value: 93.8 +/- 4.9 %); type: toxicity, cell-based, NIH3T3; settings: at 150 µg/mL, read-out: Activity
[25] = Cytotoxicity against mouse NIH/3T3 cells assessed as reduction in cell viability at 200 ug/ml incubated for 48 hrs by MTT assay (reference value: 93.8 +/- 4.9 %); type: toxicity, cell-based, NIH3T3; settings: at 200 µg/mL, read-out: Activity
[26] = biological target: T1, Lanosterol 14-alpha demethylase (Mus musculus, UniProt Q8K0C4); assay: Inhibition of CYP51 in mouse NIH/3T3 cells assessed as specific enzymatic activity at 25 ug/ml incubated for 48 hrs by ELISA analysis; type: ADME, cell-based; settings: nih/3t3, 48 h, dose 25 µg/ml
T1 sequence (Q8K0C4 whole entry): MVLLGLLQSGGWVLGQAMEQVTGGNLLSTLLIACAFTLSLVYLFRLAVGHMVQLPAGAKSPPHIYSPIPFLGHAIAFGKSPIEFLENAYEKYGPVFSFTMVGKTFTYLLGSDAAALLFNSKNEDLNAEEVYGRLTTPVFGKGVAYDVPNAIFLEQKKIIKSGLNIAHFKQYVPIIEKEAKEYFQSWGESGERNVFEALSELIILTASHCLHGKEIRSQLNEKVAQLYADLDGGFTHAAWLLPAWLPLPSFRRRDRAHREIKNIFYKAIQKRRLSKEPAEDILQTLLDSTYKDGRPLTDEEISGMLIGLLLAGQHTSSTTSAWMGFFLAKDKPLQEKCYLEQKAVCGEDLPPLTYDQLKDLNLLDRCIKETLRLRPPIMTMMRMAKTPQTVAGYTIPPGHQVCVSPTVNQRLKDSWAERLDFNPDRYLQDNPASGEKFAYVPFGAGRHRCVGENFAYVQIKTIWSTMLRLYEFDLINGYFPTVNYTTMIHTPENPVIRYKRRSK

[27] = biological target: T1, Lanosterol 14-alpha demethylase; assay: Inhibition of CYP51 in mouse NIH/3T3 cells assessed as specific enzymatic activity at 50 ug/ml incubated for 48 hrs by ELISA analysis; type: ADME, cell-based; settings: nih/3t3, 48 h, dose 50 µg/ml
[28] = biological target: T1, Lanosterol 14-alpha demethylase; assay: Inhibition of CYP51 in mouse NIH/3T3 cells assessed as specific enzymatic activity at 100 ug/ml incubated for 48 hrs by ELISA analysis; type: ADME, cell-based; settings: nih/3t3, 48 h, dose 100 µg/ml
[29] = biological target: T1, Lanosterol 14-alpha demethylase; assay: Inhibition of CYP51 in mouse NIH/3T3 cells assessed as specific enzymatic activity at 150 ug/ml incubated for 48 hrs by ELISA analysis; type: ADME, cell-based; settings: nih/3t3, 48 h, dose 150 µg/ml
[30] = biological target: T1, Lanosterol 14-alpha demethylase; assay: Inhibition of CYP51 in mouse NIH/3T3 cells assessed as specific enzymatic activity at 200 ug/ml incubated for 48 hrs by ELISA analysis; type: ADME, cell-based; settings: nih/3t3, 48 h, dose 200 µg/ml
Mucor circinelloides [31] = assay: Antifungal activity against Mucor circinelloides R7B wild type strain assessed as few mycelia with several spores at 50 ug/ml by microscopic analysis; type: functional, organism-based; settings: dose 50.0 µg/ml
Mucor circinelloides [32] = assay: Antifungal activity against Mucor circinelloides M5 strain assessed as few mycelia with several spores at 50 ug/ml by microscopic analysis; type: functional, organism-based; settings: dose 50.0 µg/ml
Mucor circinelloides [33] = assay: Antifungal activity against Mucor circinelloides R7B wild type strain assessed as non-germinated spores and undifferentiated hyphae at 50 ug/ml by microscopic analysis; type: functional, organism-based; settings: dose 50.0 µg/ml
Mucor circinelloides [34] = assay: Antifungal activity against Mucor circinelloides M5 strain assessed as non-germinated spores and undifferentiated hyphae at 50 ug/ml by microscopic analysis; type: functional, organism-based; settings: dose 50.0 µg/ml
Mucor circinelloides [35] = assay: Antifungal activity against Mucor circinelloides R7B wild type strain assessed as complete absence of mycelia at 100 to 150 ug/ml by microscopic analysis; type: functional, organism-based; settings: dose 100-150 µg/ml
Mucor circinelloides [36] = assay: Antifungal activity against Mucor circinelloides M5 strain assessed as complete absence of mycelia at 100 to 150 ug/ml by microscopic analysis; type: functional, organism-based; settings: dose 100-150 µg/ml
Mucor circinelloides [37] = assay: Antifungal activity against Mucor circinelloides R7B wild type strain assessed as non-germinated spores at 100 to 150 ug/ml by microscopic analysis; type: functional, organism-based; settings: dose 100-150 µg/ml
Mucor circinelloides [38] = assay: Antifungal activity against Mucor circinelloides M5 strain assessed as non-germinated spores at 100 to 150 ug/ml by microscopic analysis; type: functional, organism-based; settings: dose 100-150 µg/ml
Mucor circinelloides [39] = assay: Antifungal activity against Mucor circinelloides R7B wild type strain assessed as reduction in spore germination at 100 ug/ml relative to control; type: functional; design: scale not given: the % may be the effect or the level left; settings: dose 100 µg/ml
Mucor circinelloides [40] = assay: Antifungal activity against Mucor circinelloides M5 strain assessed as reduction in spore germination at 100 ug/ml relative to control; type: functional; design: scale not given: the % may be the effect or the level left; settings: dose 100 µg/ml

| SMILES | Activity (Mucor circinelloides [1]) | Activity (Mucor circinelloides [2]) | Activity (Mucor circinelloides [3]) | Activity (Mucor circinelloides [4]) | Activity (Mucor circinelloides [5]) | Activity (Mucor circinelloides [6]) | viability at 48 h, 25 ug/ml [21] | viability at 48 h, 50 ug/ml [22] | viability at 48 h, 100 ug/ml [23] | viability at 48 h, 150 ug/ml [24] | viability at 48 h, 200 ug/ml [25] | Activity [26] | Activity [27] | Activity [28] | Activity [29] | Activity [30] | Activity (Mucor circinelloides [31]) | Activity (Mucor circinelloides [32]) | Activity (Mucor circinelloides [33]) | Activity (Mucor circinelloides [34]) | further results |
| --- | --- | --- | --- | --- | --- | --- | --- | --- | --- | --- | --- | --- | --- | --- | --- | --- | --- | --- | --- | --- | --- |
| OC(Cn1cncn1)(Cn1cncn1)c1ccc(F)cc1F [FLUCONAZOLE] | 83.3% | 72.6% | 28.2% | 30.4% | 4.8% | 6.7% | 98.2% | 25% | 18.8% | 15.5% | 15.7% | 12.8 U/mg | 7.18 U/mg | 2.49 U/mg | 1.25 U/mg | 0 U/mg | Active | Active | Active | Active | MIC (Microsporum canis [7]): 50 µg/mL (≈ 163 µM); MIC (Microsporum canis [8]): 50 µg/mL (≈ 163 µM); MIC (Microsporum canis [9]): 50 µg/mL (≈ 163 µM); MIC (Nannizzia gypsea [10]): 50 µg/mL (≈ 163 µM); MIC (Nannizzia gypsea [11]): 50 µg/mL (≈ 163 µM); MIC (Mucor circinelloides [12]): > 150 µg/mL; MIC [13]: 75 µg/mL (≈ 245 µM); MIC [14]: 75 µg/mL (≈ 245 µM); MIC [15]: 75 µg/mL (≈ 245 µM); MIC (Trichophyton rubrum [16]): 75 µg/mL (≈ 245 µM); MIC (Trichophyton rubrum [17]): 75 µg/mL (≈ 245 µM); MIC (Epidermophyton floccosum): 50 µg/mL (≈ 163 µM); MIC (Aspergillus nidulans [18]): 50 µg/mL (≈ 163 µM); MIC (Aspergillus nidulans [19]): 50 µg/mL (≈ 163 µM); MIC (Aspergillus niger): 50 µg/mL (≈ 163 µM); MIC (Mucor circinelloides [20]): 150 µg/mL (≈ 490 µM); Activity (Mucor circinelloides [35]): Active; Activity (Mucor circinelloides [36]): Active; Activity (Mucor circinelloides [37]): Active; Activity (Mucor circinelloides [38]): Active |
| O=[N+]([O-])c1ccc(Oc2cc(-c3cc(F)cc(F)c3)nc3ccccc23)cc1 | 83.9% | 82.5% | 28.3% | 37.3% | 5.8% | 7.9% | 94.5% | 91.8% | 84% | 18.3% | 15.5% | 16.7 U/mg | 11.21 U/mg | 6.02 U/mg | 2.56 U/mg | 0.4 U/mg | Active | Active | Active | Active | Activity (Mucor circinelloides [39]): 7.9%; Activity (Mucor circinelloides [40]): 11.2%; Activity (Mucor circinelloides [35]): Active; Activity (Mucor circinelloides [36]): Active; Activity (Mucor circinelloides [37]): Active; Activity (Mucor circinelloides [38]): Active |
